Source: patent US12692223B2, “Phenyl-sulfamoyl-benzoic acid derivatives as ERAP1-modulators” (GREY WOLF THERAPEUTICS LIMITED, priority 2021, dated 2026)

molecular target: T1, ERAP1 (Homo sapiens, UniProt Q9NZ08); experiment: ERAP1 mediated hydrolysis of an amide substrate measured in a biochemical system (10-mer inhibition assay); settings: purified ERAP1(37-941)-10His; 10-mer substrate; 23° C. for 1 h; excitation 279 nm, emission 355 nm; read-out: IC50 vs Decapeptide WRVYEKC(Dnp)ALK-acid (where Dnp is Dinitrophenyl maleimide) (10-mer)
T1 construct: Purified ERAP1(37-941)-10His (ERAP1)
Outline: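 Purified ERAP1(37-941)-10His in 25 mM Bis-tris propane, 0.05% HPMC, pH 7.75, with compound, then 100 μM 10-mer WRVYEKC(Dnp)ALK or 240 μM L-AMC added (stock concentrations before 1:1 mixing), 1 h at 23 °C. Fluorescence read at ex 279/em 355 nm (10-mer) or ex 365/em 442 nm (L-AMC); IC50 from 4-parameter fit.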

T1 sequence (Q9NZ08 37-941): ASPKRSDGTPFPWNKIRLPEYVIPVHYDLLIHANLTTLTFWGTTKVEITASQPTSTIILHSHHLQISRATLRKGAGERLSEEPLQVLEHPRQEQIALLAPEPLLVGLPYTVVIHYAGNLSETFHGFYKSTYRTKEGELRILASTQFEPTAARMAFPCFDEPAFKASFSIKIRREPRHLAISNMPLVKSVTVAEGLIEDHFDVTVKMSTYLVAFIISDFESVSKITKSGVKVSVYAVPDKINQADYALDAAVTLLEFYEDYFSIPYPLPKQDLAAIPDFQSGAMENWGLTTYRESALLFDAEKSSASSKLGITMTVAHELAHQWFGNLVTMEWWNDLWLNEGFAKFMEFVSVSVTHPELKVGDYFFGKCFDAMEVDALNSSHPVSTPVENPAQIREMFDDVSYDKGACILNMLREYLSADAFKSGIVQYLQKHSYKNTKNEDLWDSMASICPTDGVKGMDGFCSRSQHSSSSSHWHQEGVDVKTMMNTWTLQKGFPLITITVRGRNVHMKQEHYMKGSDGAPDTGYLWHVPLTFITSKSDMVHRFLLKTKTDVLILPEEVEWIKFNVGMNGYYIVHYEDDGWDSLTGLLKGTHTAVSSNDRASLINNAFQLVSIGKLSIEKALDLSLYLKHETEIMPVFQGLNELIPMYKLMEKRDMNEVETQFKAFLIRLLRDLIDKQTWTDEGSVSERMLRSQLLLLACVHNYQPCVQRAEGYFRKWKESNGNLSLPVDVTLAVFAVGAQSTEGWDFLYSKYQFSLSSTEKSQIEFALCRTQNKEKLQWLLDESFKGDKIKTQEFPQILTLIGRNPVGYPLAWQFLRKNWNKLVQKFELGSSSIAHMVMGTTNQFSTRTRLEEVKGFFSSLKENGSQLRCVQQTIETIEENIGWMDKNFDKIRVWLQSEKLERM

SMILES	IC50
COc1ccc(C(=O)O)cc1S(=O)(=O)Nc1cc(C(F)(F)F)ccc1OC1CCCCC1 [Example 3, 3-(N-(2-(cyclohexyloxy)^−5-(trifluoromethyl)phenyl)sulfamoyl)-4-methoxybenzoic acid]	> 5 nM
N#Cc1cc(NS(=O)(=O)c2cc(C(=O)O)ccc2C2CC2)c(OC2CCC2O)cc1Cl (single isomer, unassigned) [Example 136, 3-(N-(4-chloro-5-cyano-2-(csi-2-hydroxycyclobutoxy)phenyl)sulfamoyl)-4-cyclopropylbenzoic acid]	< 1 nM
O=C(O)c1ccc(C2CC2)c(S(=O)(=O)Nc2cc(-c3ccns3)c(F)cc2OC2CCCC2)c1 [Example 21, 3-(N-(2-(cyclopentyloxy)-4-fluoro-5-(isothiazol-5-yl)phenyl)sulfamoyl)-4-cyclopropylbenzoic acid]	1 to 5 nM
CC1CCC1Oc1cc(Cl)c(C#N)cc1NS(=O)(=O)c1cc(C(=O)O)ccc1C1CC1 (single isomer, unassigned) [Example 120, 3-(N-(4-chloro-5-cyano-2-(2-methylcyclobutoxy)phenyl)sulfamoyl)-4-cyclopropylbenzoic acid]	< 1 nM
O=C(O)c1ccc(C2CC2)c(S(=O)(=O)Nc2cc(-c3ccns3)c(Cl)cc2OC2CCC2)c1 [Example 51, 3-(N-(4-chloro-2-cyclobutoxy-5-(isothiazol-5-yl)phenyl)sulfamoyl)-4-cyclopropylbenzoic acid]	< 1 nM
CC1(C)CC(C)(C)C1Oc1cc(Cl)c(C#N)cc1NS(=O)(=O)c1cc(C(=O)O)ccc1C1CC1 [Example 101, 3-(N-(4-chloro-5-cyano-2-(2,2,4,4-tetramethylcyclo-butoxy)phenyl)sulfamoyl)-4-cyclopropylbenzoic acid]	> 5 nM
N#Cc1cc(NS(=O)(=O)c2cc(C(=O)O)ccc2C2CC2)c(OCC2CCOC2)cc1Cl (stereo not drawn) [Example 28, 3-(N-(4-chloro-5-cyano-2-((tetrahydrofuran-3-yl)methoxy)phenyl)sulfamoyl)-4-cyclopropylbenzoic acid]	1 to 5 nM
Cc1cc(C2CC2)c(S(=O)(=O)Nc2cc(C#N)c(Cl)cc2OC2CCCC2)cc1C(=O)O [Example 26, 5-(N-(4-chloro-5-cyano-2-(cyclopentyloxy)phenyl)sulfamoyl)-4-cyclopropyl-2-methylbenzoic acid]	1 to 5 nM
N#Cc1cc(NS(=O)(=O)c2cc(C(=O)O)ccc2C2CC2)c(O[C@H]2C[C@H](C(F)(F)F)C2)cc1Cl [Example 40, 3-(N-(4-chloro-5-cyano-2-((trans)−3-(trifluoromethyl)cyclobutoxy)phenyl)sulfamoyl)-4-cyclopropylbenzoic acid]	1 to 5 nM
N#Cc1cc(NS(=O)(=O)c2cc(C(=O)O)ccc2C2CC2)c(OC2CCC2O)cc1Cl (single isomer, unassigned) [Example 135, 3-(N-(4-chloro-5-cyano-2-(cis-2-hydroxycyclobutoxy)phenyl)sulfamoyl)-4-cyclopropylbenzoic acid]	> 5 nM
C#CC1(Oc2cc(Cl)c(C#N)cc2NS(=O)(=O)c2cc(C(=O)O)ccc2C2CC2)CCCC1 [Example 30, 3-(N-(4-chloro-5-cyano-2-((1-ethynylcyclopentyl)oxy)phenyl)sulfamoyl)-4-cyclopropylbenzoic acid]	1 to 5 nM
N#Cc1cc(NS(=O)(=O)c2cc(C(=O)O)c(F)cc2C2CC2)c(OC2CC(F)(F)C2)cc1Cl [Example 17, 5-(N-(4-chloro-5-cyano-2-(3,3-difluorocyclobutoxy)phenyl)sulfamoyl)-4-cyclopropyl-2-fluorobenzoic acid]	< 1 nM
N#Cc1cc(NS(=O)(=O)c2cc(C(=O)O)ccc2C2CC2)c(OC2CC(F)(F)C2)cc1Cl [Example 13, 3-(N-(4-chloro-5-cyano-2-(3,3-difluorocyclobutoxy)phenyl)sulfamoyl)-4-cyclopropylbenzoic acid]	1 to 5 nM
Cc1oncc1-c1cc(NS(=O)(=O)c2cc(C(=O)O)ccc2C2CC2)c(OC2CC(F)(F)C2)cc1Cl [Example 61, 3-(N-(4-chloro-2-(3,3-difluorocyclobutoxy)-5-(5-methylisoxazol-4-yl)phenyl)sulfamoyl)-4-cyclopropylbenzoic acid]	< 1 nM
O=C(O)c1ccc(C2CC2)c(S(=O)(=O)Nc2cc(-c3ccns3)ccc2OC2CCCC2)c1 [Example 20, 3-(N-(2-(cyclopentyloxy)-5-(isothiazol-5-yl)phenyl)sulfamoyl)-4-cyclopropylbenzoic acid]	< 1 nM
N#Cc1cc(NS(=O)(=O)c2cc(C(=O)O)ccc2C2CC2)c(O[C@H]2C[C@@H](F)C2)cc1Cl [Example 71, 3-(N-(4-chloro-5-cyano-2-(cis-3-fluorocyclobutoxy)phenyl)sulfamoyl)-4-cyclopropylbenzoic acid]	< 1 nM
CC1(C)CCC1Oc1cc(Cl)c(C#N)cc1NS(=O)(=O)c1cc(C(=O)O)ccc1C1CC1 (single isomer, unassigned) [Example 93, 3-(N-(4-chloro-5-cyano-2-(2,2-dimethylcyclobutoxy)phenyl)-sulfamoyl)-4-cyclopropylbenzoic acid]	1 to 5 nM
CO[C@H]1C[C@@H](Oc2cc(Cl)c(C#N)cc2NS(=O)(=O)c2cc(C(=O)O)ccc2C2CC2)C1 [Example 68, 3-(N-(4-chloro-5-cyano-2-(cis-3-methoxycyclobutoxy)phenyl)sulfamoyl)-4-cyclopropylbenzoic acid]	1 to 5 nM
N#Cc1cc(NS(=O)(=O)c2cc(C(=O)O)ccc2C2CC2)c(OC2CCC2O)cc1Cl (racemic) [Example 118, 3-(N-(4-chloro-5-cyano-2-(trans-2-hydroxycyclobutoxy)phenyl)sulfamoyl)-4-cyclopropylbenzoic acid]	< 1 nM
N#Cc1cc(NS(=O)(=O)c2cc(C(=O)O)ccc2C2CC2)c(OC2CCCC2)cc1F [Example 11, 3-(N-(5-cyano-2-(cyclopentyloxy)-4-fluorophenyl)sulfamoyl)-4-cyclopropylbenzoic acid]	< 1 nM

The next lines start with the values.

IC50	SMILES
< 1 nM	CC1(C)CCC[C@@H]1Oc1cc(Cl)c(C#N)cc1NS(=O)(=O)c1cc(C(=O)O)ccc1C1CC1 [Example 57, (S)−3-(N-(4-chloro-5-cyano-2-((2,2-dimethylcyclopentyl)oxy)phenyl)sulfamoyl)-4-cyclopropylbenzoic acid]
< 1 nM	N#Cc1cc(NS(=O)(=O)c2cc(C(=O)O)ccc2C2CC2)c(OC2CCC23CC3)cc1Cl (single isomer, unassigned) [Example 106, 3-(N-(4-chloro-5-cyano-2-(spiro[2.3]hexan-4-yloxy)phenyl)-sulfamoyl)-4-cyclopropylbenzoic acid]
< 1 nM	COC1CCCC1Oc1cc(Cl)c(C#N)cc1NS(=O)(=O)c1cc(C(=O)O)ccc1C1CC1 (racemic) [Example 102, 3-(N-(4-chloro-5-cyano-2-((cis-2-methoxycyclopentyl)oxy)phenyl)sulfa-moyl)-4-cyclopropylbenzoic acid]
< 1 nM	N#Cc1cc(NS(=O)(=O)c2cc(C(=O)O)ccc2C2CC2)c(OC2CCC(F)(F)C2)cc1Cl (single isomer, unassigned) [Example 140, 3-(N-(4-chloro-5-cyano-2-((3,3-difluorocyclopentyl)oxy)phenyl)sulfa-moyl)-4-cyclopropylbenzoic acid]
< 1 nM	N#Cc1cc(NS(=O)(=O)c2cc(C(=O)O)ccc2C2CC2)c(OC2CCC(O)C2)cc1Cl (racemic) [Example 110, 3-(N-(4-chloro-5-cyano-2-((cis-3-hydroxycyclopentyl)oxy)phenyl)sulfa-moyl)-4-cyclopropylbenzoic acid]
< 1 nM	N#Cc1cc(NS(=O)(=O)c2cc(C(=O)O)ccc2C2CC2)c(OCC23CC(C2)C3)cc1Cl [Example 76, 3-(N-(2-(bicyclo[1.1.1]pentan-1-ylmethoxy)− 4-chloro-5-cyanophenyl)sulfamoyl)-4-cyclopropylbenzoic acid]
< 1 nM	N#Cc1cc(NS(=O)(=O)c2cc(C(=O)O)ccc2C2CC2)c(OCC2(F)CCC2)cc1Cl [Example 58, 3-(N-(4-chloro-5-cyano-2-((1-fluorocyclobutyl)methoxy)phenyl)sulfamoyl)-4-cyclopropylbenzoic acid]
< 1 nM	N#Cc1cc(NS(=O)(=O)c2cc(C(=O)O)ccc2C2CC2)c(OCC2CCC2)cc1Cl [Example 35, 3-(N-(4-chloro-5-cyano-2-(cyclobutylmethoxy)phenyl)sulfamoyl)-4-cyclopropylbenzoic acid]
< 1 nM	CC1(C)CCC[C@H]1Oc1cc(Cl)c(C#N)cc1NS(=O)(=O)c1cc(C(=O)O)ccc1C1CC1 [Example 63, (R)-3-(N-(4-chloro-5-cyano-2-((2,2-dimethylcyclopentyl)oxy)phenyl)sulfamoyl)-4-cyclopropylbenzoic acid]
< 1 nM	N#Cc1cc(NS(=O)(=O)c2cc(C(=O)O)ccc2C2CC2)c(OC2CCC3(CC3)C2)cc1Cl (stereo not drawn) [Example 64, 3-(N-(4-chloro-5-cyano-2-(spiro[2.4]heptan-5-yloxy)phenyl)sulfamoyl)-4-cyclopropylbenzoic acid]
< 1 nM	N#Cc1cc(NS(=O)(=O)c2cc(C(=O)O)ccc2C2CC2)c(OC2CCC(C#N)C2)cc1Cl (racemic) [Example 72, 3-(N-(4-chloro-5-cyano-2-((trans-3-cyanocyclopentyl)oxy)phenyl)sulfamoyl)-4-cyclopropylbenzoic acid]
< 1 nM	N#Cc1cc(NS(=O)(=O)c2cc(C(=O)O)ccc2C2CC2)c(OC2CCC(F)(F)C2)cc1Cl (stereo not drawn) [Example 134, 3-(N-(4-chloro-5-cyano-2-((3,3-difluorocyclopentyl)oxy)phenyl)sulfa-moyl)-4-cyclopropylbenzoic acid]
< 1 nM	CO[C@@H]1CCC[C@@H]1Oc1cc(Cl)c(C#N)cc1NS(=O)(=O)c1cc(C(=O)O)ccc1C1CC1 (single isomer, unassigned) [Example 142, 3-(N-(4-chloro-5-cyano-2-((cis-2-methoxycyclopentyl)oxy)phenyl)sulfa-moyl)-4-cyclopropylbenzoic acid]
